Measured values as given in ChEMBL document CHEMBL4651402, “Screening of ~5500 FDA-approved drugs and clinical candidates for anti-SARS-CoV-2 activity” (2021).

Tested on: SARS-CoV-2
Test: microbe, parasite or virus in culture
Settings: Severe acute respiratory syndrome coronavirus 2, Vero C1008, 48 h

C#C[C@]1(O)CC[C@H]2[C@@H]3CCc4cc(O)ccc4[C@H]3CC[C@@]21C [ETHINYL ESTRADIOL]
IC50: > 20 µM
IC50 (read-out: pIC50 (converted)): > 20 µM

CCc1cc(C(N)=S)ccn1 [ETHIONAMIDE]
IC50: > 20 µM
IC50 (read-out: pIC50 (converted)): > 20 µM

C#C[C@]1(O)CC[C@H]2[C@@H]3CCC4=CC(=O)CC[C@]4(C)[C@H]3CC[C@@]21C [ETHISTERONE]
IC50: > 20 µM
IC50 (read-out: pIC50 (converted)): > 20 µM

CCOC(=O)C1(c2ccccc2)CCCN(C)CC1 (stereo unspecified) [ETHOHEPTAZINE]
IC50: > 20 µM
IC50 (read-out: pIC50 (converted)): > 20 µM

CCN(CC)C(C)CN1c2ccccc2Sc2ccccc21 (stereo unspecified) [ETHOPROPAZINE]
IC50: > 20 µM
IC50 (read-out: pIC50 (converted)): > 20 µM

CCC1(C)CC(=O)NC1=O (stereo unspecified) [ETHOSUXIMIDE]
IC50: > 20 µM
IC50 (read-out: pIC50 (converted)): > 20 µM

CCN1C(=O)NC(c2ccccc2)C1=O (stereo unspecified) [ETHOTOIN]
IC50: > 20 µM
IC50 (read-out: pIC50 (converted)): > 20 µM

CCOc1ccc(/N=N/c2ccc(N)cc2N)cc1 [ETHOXAZENE]
IC50: > 20 µM
IC50 (read-out: pIC50 (converted)): > 20 µM

CCN1[C@@H]2CC[C@H]1C[C@@H](OC(c1ccccc1)c1ccccc1)C2 [ETHYBENZTROPINE]
IC50: > 20 µM
IC50 (read-out: pIC50 (converted)): > 20 µM

CCOc1ccc2nccc([C@@H](O)[C@@H]3C[C@@H]4CCN3C[C@@H]4CC)c2c1 [ETHYLHYDROCUPREINE]
IC50: > 20 µM
IC50 (read-out: pIC50 (converted)): > 20 µM

CCOc1ccc2c3c1O[C@H]1[C@@H](O)C=C[C@H]4[C@@H](C2)N(C)CC[C@@]341 [ETHYLMORPHINE]
IC50: > 20 µM
IC50 (read-out: pIC50 (converted)): > 20 µM

CCC(N)C(O)c1ccc(O)c(O)c1 (stereo unspecified) [ETHYLNOREPINEPHRINE]
IC50: > 20 µM
IC50 (read-out: pIC50 (converted)): > 20 µM

CCOC(=O)c1ccc(O)cc1 [ETHYLPARABEN]
IC50: > 20 µM
IC50 (read-out: pIC50 (converted)): > 20 µM

C#C[C@]1(OC(C)=O)CC[C@H]2[C@@H]3CCC4=C[C@@H](OC(C)=O)CC[C@@H]4[C@H]3CC[C@@]21C [ETHYNODIOL DIACETATE]
IC50: > 20 µM
IC50 (read-out: pIC50 (converted)): > 20 µM

CCc1cc(Cl)c(OC)c(C(=O)NC[C@@H]2CCCN2CC)c1O [ETICLOPRIDE]
IC50: > 20 µM
IC50 (read-out: pIC50 (converted)): > 20 µM

CCCN(CC)C(CC)C(=O)Nc1c(C)cccc1C (stereo unspecified) [ETIDOCAINE]
IC50: > 20 µM
IC50 (read-out: pIC50 (converted)): > 20 µM

CC(O)(P(=O)(O)O)P(=O)(O)O [ETIDRONIC ACID]
IC50: > 20 µM
IC50 (read-out: pIC50 (converted)): > 20 µM

CCc1cccc(CC)c1NC(=O)CN(CC(=O)O)CC(=O)O [ETIFENIN]
IC50: > 20 µM
IC50 (read-out: pIC50 (converted)): > 20 µM

CCNC1=Nc2ccc(Cl)cc2C(C)(c2ccccc2)O1 (stereo unspecified) [ETIFOXINE]
IC50: > 20 µM
IC50 (read-out: pIC50 (converted)): > 20 µM

CCNCC(O)c1cccc(O)c1 (stereo unspecified) [ETILEFRINE]
IC50: > 20 µM
IC50 (read-out: pIC50 (converted)): > 20 µM

C#CCN/C(=N\C#N)NCCSCc1nc[nH]c1C [ETINTIDINE]
IC50: > 20 µM
IC50 (read-out: pIC50 (converted)): > 20 µM

CCOc1ccc(NC(=S)Nc2ccc(OCC)cc2)cc1 [ETOCARLIDE]
IC50: > 20 µM
IC50 (read-out: pIC50 (converted)): > 20 µM

CCc1cccc2c3c([nH]c12)C(CC)(CC(=O)O)OCC3 (stereo unspecified) [ETODOLAC]
IC50: > 20 µM
IC50 (read-out: pIC50 (converted)): > 20 µM

O=C(OCCOCCO)c1ccccc1Nc1cccc(C(F)(F)F)c1 [ETOFENAMATE]
IC50: > 20 µM
IC50 (read-out: pIC50 (converted)): > 20 µM

CCCCN/C(=N\CC)NC(=N)N [ETOFORMIN]
IC50: > 20 µM
IC50 (read-out: pIC50 (converted)): > 20 µM

Cn1c(=O)c2c(ncn2CCO)n(C)c1=O [ETOFYLLINE]
IC50: > 20 µM
IC50 (read-out: pIC50 (converted)): > 20 µM

COc1cc([C@@H]2c3cc4c(cc3[C@@H](O[C@@H]3O[C@@H]5CO[C@@H](C)O[C@H]5[C@H](O)[C@H]3O)[C@H]3COC(=O)[C@H]23)OCO4)cc(OC)c1O [ETOPOSIDE]
IC50: > 20 µM
IC50 (read-out: pIC50 (converted)): > 20 µM

CCc1nc(N)nc(N)c1-c1ccc(Cl)c(Cl)c1 [ETOPRINE]
IC50: > 20 µM
IC50 (read-out: pIC50 (converted)): > 20 µM

Cc1ccc(-c2ncc(Cl)cc2-c2ccc(S(C)(=O)=O)cc2)cn1 [ETORICOXIB]
IC50: > 20 µM
IC50 (read-out: pIC50 (converted)): > 20 µM

CCOCCOc1ccccc1C(N)=O [ETOSALAMIDE]
IC50: > 20 µM
IC50 (read-out: pIC50 (converted)): > 20 µM

CCOC(=O)/C=C(C)/C=C/C=C(C)/C=C/c1c(C)cc(OC)c(C)c1C [ETRETINATE]
IC50: > 20 µM
IC50 (read-out: pIC50 (converted)): > 20 µM

CCC(N)Cc1c[nH]c2ccccc12 (stereo unspecified) [ETRYPTAMINE]
IC50: > 20 µM
IC50 (read-out: pIC50 (converted)): > 20 µM

CC12CCC(CC1)C(C)(C)O2 [EUCALYPTOL]
IC50: > 20 µM
IC50 (read-out: pIC50 (converted)): > 20 µM

CC1CC(OC(=O)C(O)c2ccccc2)CC(C)(C)N1C (stereo unspecified) [EUCATROPINE]
IC50: > 20 µM
IC50 (read-out: pIC50 (converted)): > 20 µM

C=CC(=O)N1CCC(CNc2ncnc(N)c2-c2ccc(Oc3ccccc3)cc2)CC1 [EVOBRUTINIB]
IC50: > 20 µM
IC50 (read-out: pIC50 (converted)): > 20 µM

Cc1nccn1Cc1cc(-c2ccc(F)c(C(F)F)c2)cnn1 [EVT-101 FREE BASE]
IC50: > 20 µM
IC50 (read-out: pIC50 (converted)): > 20 µM

CCCCCCOc1ccccc1C(N)=O [EXALAMIDE]
IC50: > 20 µM
IC50 (read-out: pIC50 (converted)): > 20 µM

C=C1C[C@@H]2[C@H](CC[C@]3(C)C(=O)CC[C@@H]23)[C@@]2(C)C=CC(=O)C=C12 [EXEMESTANE]
IC50: > 20 µM
IC50 (read-out: pIC50 (converted)): > 20 µM
